{
  "source": "patent US8309768B2",
  "about": "“FTY720-derived anticancer agents” (The Ohio State University Research Foundation, priority 2010, dated 2012)",
  "key": {"primary CLL cells": {"tested_on": "primary CLL cells", "test": "Cytotoxicity in primary CLL cells (Annexin V / propidium iodide flow cytometry)", "assay_type": "cell-based", "conditions": "primary CLL cells, 24 hrs, OSU-2S at 8 μM", "description": "Antitumor and other effects of OSU-2S were also evaluated in Chronic Lymphoid Leukemia cells. OSU-2S cytotoxicity in primary CLL cells is measured at 24 hrs by staining for Annexin V and Propidium Iodide using Flow cytometer. The number of live cells (stained negative for both the stains) were normalized to untreated control. Fludarabine metabolite (2-Fara) was used as a control.\nThe effect of OSU-2S was evaluated in 3 different CLL cell lines (WROTH<THOU, and RAHUE) over a 24 hour period, as shown in FIG. 9. Time dependent OSU-2S cytotoxicity in primary CLL cells was measured by treating the cells with OSU-2S (8 μM) for indicated period of time and washed and cultured in the fresh media for 24 hr. The number of live cells stained negative for Annexin V and Propidium Iodide were measured at 24 hrs by using Flowcytometer and normalized to untreated control.\nCD37 activation and OSU-2S produced enhanced cytotoxicity in CLL cells, as detected by flow cytometer at 24 hr. in CLL cells treated with CD37 antibody and cross linker or OSU-2S 8 μM or with both are stained for Annexin V and propidium iodide at 24 hr."}, "CLL cells": {"tested_on": "CLL cells", "test": "Western blot analysis in CLL cells (PARP, caspase 3, caspase 9)", "assay_type": "cell-based", "excerpt": "Western blot analysis as carried out to further observe the effects of OSU-2S in CLL cells. […] OSU-2S in CLL activates caspase, as evidenced by cleavage of poly (ADP-ribose) polymerase (PARP). Jurkat cell with or without UV irradiation were included as controls. […] OSU-2S was also shown to activate caspase 3 in CLL cells. […] Finally, OSU-2S activates caspase 9 in CLL."}, "[1]": {"target": "T1, S1P1 receptor-overexpressing Huh7 cells (Homo sapiens, UniProt P21453)", "T1 construct": "expressed in transfected cells", "T1 sequence (P21453 whole entry)": "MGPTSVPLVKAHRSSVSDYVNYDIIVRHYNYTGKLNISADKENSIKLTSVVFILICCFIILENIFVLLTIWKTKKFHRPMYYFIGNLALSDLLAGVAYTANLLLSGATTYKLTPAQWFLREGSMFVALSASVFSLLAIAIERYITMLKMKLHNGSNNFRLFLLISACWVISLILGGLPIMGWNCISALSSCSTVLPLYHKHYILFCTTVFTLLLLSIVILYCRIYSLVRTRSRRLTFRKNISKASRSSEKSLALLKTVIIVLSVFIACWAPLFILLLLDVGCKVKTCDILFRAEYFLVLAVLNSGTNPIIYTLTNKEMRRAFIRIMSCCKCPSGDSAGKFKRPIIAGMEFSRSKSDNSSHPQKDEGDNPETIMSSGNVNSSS", "test": "Immunocytochemical analysis of S1P1 receptor internalization", "assay_type": "cell-based", "conditions": "immunocytochemistry", "protocol": "Immunocytochemistry. Immunocytochemical analysis of S1P1 internalization and PKCδ nuclear translocation were performed as described. […] Briefly, treated cells were washed, fixed with 4% paraformaldehyde, and permeabilized with 0.1% Triton X-100. After blocking with 2% FBS, cells were incubated with rabbit anti-S1P1 or rabbit anti-PKCδ antibodies (1:200 dilution, 4° C., 24 h), followed by Alexa Fluor 488-conjugated goat anti-rabbit IgG (room temperature, 1 h). Nuclei were counterstained with a 4,6-diamidino-2-phenylindole (DAPI)-containing mounting medium (Vector Laboratories, Burlingame, Calif.)."}, "[2]": {"tested_on": "lymphocytes in peripheral blood", "test": "In vivo evaluation of T-lymphocyte homing", "conditions": "CD2F1 mice, i.p., 6 h", "description": "In vivo evaluation of T-lymphocyte homing. […] Six hours later, animals were sacrificed, and peripheral blood mononuclear cells were prepared as described. Dragun et al., Kidney Int 65, 1076-1083 (2004). Cells were stained with FITC-labeled rat anti-mouse CD3 molecular complex and PE-labeled rat anti-mouse CD45RA (4° C., in darkness, 30 min), and analyzed by flow cytometry."}, "Huh7 cells": {"tested_on": "Huh7 cells", "test": "MTT cell viability assay, Huh7", "assay_type": "cell-based", "description": "(§1) Cell lines, culture and reagents. The HCC cell lines Hep3B, PLC5 and Huh7, as well as primary nonmalignant human hepatocytes were used in this study. Cancer cells were cultured in Dulbecco's Modified Eagle's medium (DMEM) supplemented with 10% fetal bovine serum (FBS). Hepatocytes were maintained in defined Hepatocyte Culture Medium. […] Various polyclonal and monoclonal antibodies were used for western blotting, immunocytochemical, and flow cytometric analyses.\n(§2) Cell viability assay. Cell viability was assessed by 3-(4,5-dimethylthiazol-2-yl)-2,5-diphenyl-2H-tetrazolium bromide (MTT) assays in six replicates. Cells were seeded (4,000 cells/well; 96-well plate) for 24 h and treated with test agents in 5% FBS-supplemented DMEM. After treatment, cells were incubated in medium containing 0.5 mg/ml MTT (37° C., 2 h). Reduced MTT was dissolved in DMSO (200 μL/well) and absorbances measured at 570 nm."}, "Hep3B cells": {"tested_on": "Hep3B cells", "test": "MTT cell viability assay, Hep3B", "assay_type": "cell-based", "conditions": "Homo sapiens, 24 h of treatment", "description": "as §1, §2"}, "PLC5 cells": {"tested_on": "PLC5 cells", "test": "MTT cell viability assay, PLC5", "assay_type": "cell-based", "conditions": "24 h of treatment", "description": "as §1, §2"}, "normal human hepatocytes": {"tested_on": "normal human hepatocytes", "test": "MTT cell viability assay, normal hepatocytes", "assay_type": "cell-based", "conditions": "24 h", "description": "as §1, §2"}, "[3]": {"target": "T1, S1P1 receptor-overexpressing Huh7 cells", "test": "Cell viability in stable S1P1 receptor transfectants", "assay_type": "cell-based", "conditions": "two stable S1P1 clones vs wild-type Huh7", "description": "as §2\nOverexpression of S1P1 Receptors. Huh7 or Hep3B cells were transfected with plasmids encoding S1PR1, Flag-tagged GST-π or hemagglutinin (HA)-tagged, CA-Akt. The corresponding empty vectors were used as controls. Stable clones were selected over 3 weeks by geneticin, and the expression of cloned proteins was confirmed by Western blotting."}, "[4]": {"tested_on": "PTEN, p53, Mcl-1 in Huh7 cells", "test": "Western blot of signaling markers in drug-treated Huh7 cells", "assay_type": "cell-based", "conditions": "24 h", "description": "Immunoblotting. Immunoblotting of biomarkers in cell lysates and tumor tissue homogenates was carried out according to a published procedure. Hung et al., Cancer Res., 68, 1204-1212 (2008)."}, "[5]": {"tested_on": "subcutaneous Hep3B tumors", "test": "Ectopic (subcutaneous) Hep3B xenograft tumor model", "assay_type": "in vivo, athymic nude mice", "description": "(§3) Xenograft tumor models. Ectopic tumors were established in athymic nude mice by subcutaneous injection of 1×10^6 Hep3B cells in a total volume of 0.1 ml of serum-free medium containing 50% Matrigel. Mice with established tumors were randomized to five groups (n=8) that received daily i.p. injections of OSU-2S or FTY720 at 5 or 10 mg/kg, or the vehicle. Tumor burdens were determined weekly using calipers (volume=width^2×length×0.52). Body weights were measured weekly. At the study endpoint, tumors were harvested, snap-frozen and stored at −80° C. for biomarker analysis. Blood and tissues were collected for evaluation of complete blood counts, serum chemistry and histopathology."}, "[6]": {"tested_on": "orthotopic Hep3B-luc tumors", "test": "Orthotopic Hep3B-luc xenograft tumor model", "assay_type": "in vivo, athymic nude mice", "parameters": "dose or concentration left out as unconfirmed", "conditions": "by three weeks", "excerpt": "Orthotopic tumors were established by direct intrahepatic injection of luciferase-expressing Hep3B (Hep3B-luc) cells as described. Omar et al., Mol Pharmacol, 76, 957-968 (2009). The establishment and growth of tumors were monitored by bioluminescent imaging using the IVIS™ imaging system (Xenogen, Alameda, Calif.). […] All animal use described in this manuscript was done in accordance with protocols approved by The Ohio State University Institutional Animal Care and Use Committee."}, "[7]": {"test": "Toxicity evaluation in tumor-bearing mice (body weight, blood counts, histopathology)", "assay_type": "in vivo, athymic nude mice", "conditions": "for mice with abdominal adhesions with varying amounts of peritonitis: of six mice per group examined histologically", "description": "as §3\nOrthotopic tumors were established by direct intrahepatic injection of luciferase-expressing Hep3B (Hep3B-luc) cells as described. Omar et al., Mol Pharmacol, 76, 957-968 (2009). The establishment and growth of tumors were monitored by bioluminescent imaging using the IVIS™ imaging system (Xenogen, Alameda, Calif.). Two weeks after tumor cell injection, animals with established tumors were randomized to three groups (n=3) that received daily i.p. injections of FTY720 or OSU-2S at 5 mg/kg, or vehicle for 42 days and were imaged weekly. All animal use described in this manuscript was done in accordance with protocols approved by The Ohio State University Institutional Animal Care and Use Committee."}, "[8]": {"target": "T2, PP2A (Serine/Threonine Phosphatase 2A) (Homo sapiens, UniProt P67775)", "T2 construct": "endogenous in cells; host or cells: primary CLL cells; Ramos cells", "T2 sequence (P67775 whole entry)": "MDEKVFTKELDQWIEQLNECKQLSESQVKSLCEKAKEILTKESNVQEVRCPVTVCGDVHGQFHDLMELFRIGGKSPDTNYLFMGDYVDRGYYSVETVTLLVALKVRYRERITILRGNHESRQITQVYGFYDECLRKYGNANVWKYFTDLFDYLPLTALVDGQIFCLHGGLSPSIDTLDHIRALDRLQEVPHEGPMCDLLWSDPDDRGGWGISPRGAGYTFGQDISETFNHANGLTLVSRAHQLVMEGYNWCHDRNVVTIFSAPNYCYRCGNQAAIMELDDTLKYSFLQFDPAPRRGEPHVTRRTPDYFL", "test": "PP2A functional enzymatic assay (malachite green) in primary CLL cells", "assay_type": "cell-based", "conditions": "24 hrs, OSU-2S 8 μM, untreated about 0.07", "description": "The ability of OSU-2S to induce PP2A (Serine/Threonine Phosphatase 2A) activity in primary CLL cells was measured at 24 hrs by a functional enzymatic assay. Lysates made from OSU-2S 8 μM treated cells are used to immunoprecipitate PP2Ac which was then used as an enzyme to cleave the specific phosphor-peptide substrate in the functional assay. The cleaved free phosphates were measured by adding malachite green detection solutions and measuring the absorbance at A650 nm. Ramos cells were also included, and FTY720 was used as the control."}, "[9]": {"tested_on": "SphK2 siRNA-transfected Huh7 cells", "test": "Cell viability after siRNA-mediated knockdown of SphK2", "assay_type": "cell-based", "conditions": "SphK2 siRNA vs scrambled", "description": "as §2\nSmall interfering (si)RNA- or short hairpin (sh)RNA-mediated knockdown. PLC5 and Huh7 cells were transfected with the following siRNA duplexes or shRNA plasmids according to the manufacturer's protocol for the knockdown of target genes: siRNA: glutathione S-transferase (GST)-π and sphingosine kinase 2 (SphK2); shRNA constructs: pKD-PKCδ-v2. Stable clones were isolated from Huh7 cells transfected with shRNA plasmids were further subjected to stable clone isolation by geneticin. Immunoblotting was performed to confirm the knockdowns."}},
  "data": [
    {"smiles": "Nc1nc(F)nc2c1ncn2[C@@H]1O[C@H](CO)[C@@H](O)[C@@H]1O", "note": "[2-Fara, reference compound]", "values": [
      {"measurement": "growth (live cells normalized to untreated control)", "setting": "primary CLL cells", "value": 100, "unit": "%"},
      {"measurement": "caspase 3 activation", "setting": "CLL cells; 24 and 48 hours, products at about 16-18 kD", "value": "caspase 3 cleaved products"},
      {"measurement": "caspase 9 activation", "setting": "CLL cells; products at about 30-34 kD", "value": "caspase 9 cleaved products"}
    ]},
    {"smiles": "CCCCCCCCc1ccc(CCC(N)(CO)CO)cc1", "note": "[FTY720]", "values": [
      {"measurement": "S1P1 receptor internalization and clustering in the cytoplasm", "setting": "[1]", "value": "profound effect"},
      {"measurement": "drop in the number of T lymphocytes in peripheral blood", "setting": "[2]; 1 mg/kg", "value": "≥ 75", "unit": "%"},
      {"measurement": "changes in circulating B lymphocytes", "setting": "[2]", "value": "no comparable changes"},
      {"measurement": "IC50", "setting": "Huh7 cells; Homo sapiens, Huh-7, 24 h of treatment, MTT", "value": 4.8, "unit": "µM"},
      {"measurement": "IC50", "setting": "Hep3B cells", "value": 4.2, "unit": "µM"},
      {"measurement": "IC50", "setting": "PLC5 cells", "value": 6.2, "unit": "µM"},
      {"measurement": "sensitivity of normal human hepatocytes relative to malignant cells", "setting": "normal human hepatocytes", "value": "resistant"},
      {"measurement": "effect of S1P1 receptor overexpression on antiproliferative activity", "setting": "[3]", "value": "partially protected"},
      {"measurement": "effect on expression levels of PTEN, p53, or Mcl-1", "setting": "[4]", "value": "neither OSU-2S nor FTY720 had an appreciable effect"},
      {"measurement": "ectopic Hep3B tumor growth vs vehicle control", "setting": "[5]; 5 mg/kg, i.p. once daily, P<0.001", "value": "completely suppressed"},
      {"measurement": "dose dependency of tumor-suppressive response", "setting": "[5]; 5 and 10 mg/kg i.p. daily", "value": "no dose dependency"},
      {"measurement": "intratumoral biomarkers of drug activity", "setting": "[5]; Hep3B tumor tissue homogenates, Western blot", "value": "PKCδ and caspase-3 were activated"},
      {"measurement": "orthotopic tumor burden (bioluminescence)", "setting": "[6]", "value": "suppressed mean tumor burden to the original level"},
      {"measurement": "mice with abdominal adhesions with varying amounts of peritonitis", "setting": "[7]; 5 mg/kg", "value": "three"},
      {"measurement": "mice with abdominal adhesions with varying amounts of peritonitis", "setting": "[7]; 10 mg/kg", "value": "all"},
      {"measurement": "lymphocyte levels", "setting": "[7]; ectopic tumor-bearing mice at study endpoint", "value": "minimal to mild lymphopenia"},
      {"measurement": "overt toxicity and body weight", "setting": "[7]; ectopic tumor-bearing mice, daily i.p. 5 or 10 mg/kg", "value": "no overt signs of toxicity and no loss of body weight"},
      {"measurement": "tolerability (stable body weights)", "setting": "[7]; orthotopic tumor-bearing mice, daily i.p., 42 days", "value": "well tolerated"},
      {"measurement": "PP2A activity, absorbance at A650 nm", "setting": "[8]", "value": "about 0.20"},
      {"measurement": "effect of SphK2 knockdown on antiproliferative activity (sensitizing effect)", "setting": "[9]", "value": "significantly increased"}
    ]},
    {"smiles": "CCCCCCCCc1ccc(CCC(N)(CO)COP(=O)(O)O)cc1", "note": "(stereo not drawn) [p-FTY720]", "values": [
      {"measurement": "suppression of HCC cell viability by phosphate derivatives", "setting": "Huh7 cells; 24 h, MTT (FIG. 6A)", "value": "lacks in vitro efficacy"}
    ]}
  ]
}
